Earlier results as cited in US20240390332A1, “Combination treatment and/or prevention of renal diseases and/or hypertension in non-human mammals comprising one or more SGLT-2 inhibitors and telmisartan” (BOEHRINGER INGELHEIM VETMEDICA GMBH, priority 2023, published 2024).

Test system: human patients suffering from diabetes mellitus type II
Details: baseline to week 12, empagliflozin 10 mg and 25 mg groups vs placebo

## OC[C@H]1O[C@@H](c2ccc(Cl)c(Cc3ccc(O[C@H]4CCOC4)cc3)c2)[C@H](O)[C@@H](O)[C@@H]1O [empagliflozin, Empagliflozin]
  mean 24-hour systolic BP, placebo-subtracted mean difference: up to −4.16 mmHg
